Data from patent US9351980B2, “Di-aspirin derivatives” (The University of Wolverhampton, priority 2010, dated 2016).

What was measured:
colorectal cells = settings: previously reported; cited from earlier work
[1] = human subjects given analgesic doses of aspirin; cited from earlier work
MAC13 tumour = test: Tumour volume in MAC 13 tumour bearing mice; format: in vivo; settings: MAC13 tumour bearing NMRI mice, 1 mg/kg dissolved in PBS (FIG. 7)
Procedure: NMRI mice were treated with MAC13 cells (5×10^6) sub cut in their flanks (Hussey H J, Bibby […]; British J. of Cancer, 73, 1187-1192, 1996), were treated with example compounds. Once the tumour was established the tumour was dissected and small fragments re-transplanted into more mice. […] The mice were monitored daily-weight, food and water consumption and tumour size was recorded using calipers. The experiment ended when the control mouse tumours started to ulcerate.

[2] = system: SW480 colon carcinoma cell line, HCT-116 colon cancer cell line, MDA-231MB breast cancer cell line; test: MTT titration assay (cell viability, 24 hours) on colon versus breast cancer cell lines; format: cell-based
Procedure: In the examples, assays mentioned are standard cytotoxicity assays and cell cultures used are prepared under standard conditions. The MTT assay referred to is MTT [3-(4,5-Dimethylthiazol-2-yl)-2,5-diphenyltetrazolium-bromide] assay (Mosmann T; J Immunol Methods 65: 55-63, 1983).
In FIG. 2, the in vitro toxicity of BCS, compound 508 of table 1, was investigated in further detail by titration against the SW480 colon carcinoma cell line and the DNA mismatch repair deficient HCT-116 colon cancer cell line and the MDA-231MB breast cancer cell line again utilising the MTT assay as described previously. The concentration-effect relationship for the three different cells lines is given in FIG. 2 (error bars indicate mean+/−S.D.). All experiments were performed in triplicate. For clarity, carrier molecule (DMSO) toxicity of the equivalent concentration utilised is also shown.

SW480 cell line = test: MTT in vitro cytotoxicity assay on SW480 cells; format: cell-based
Procedure: The MTT assay was utilised with a 24 hour incubation period of cell exposure to the compound. […] Experiments were carried out in triplicate; error bars indicate standard deviation.
The carrier molecule utilised (DMSO) in these experiments to prepare stock solutions was buffered with Tris-HCl buffer pH8.0 (0.5M) to mitigate against any pH changes caused by the addition of compounds to cell culture medium. All data shown were normalised to cells exposed only to buffered carrier molecule.
The result shown is the average of three independent experiments (error bars indicate mean+/−SEM). For comparative purposes, compound toxicity is shown alongside the equivalent concentration of salicylic acid (SA) and aspirin (as tested using the MTT assay with a 72 hour incubation of SW480 cells with compound). The carrier molecule utilised in these experiments was DMSO (dimethyl sulphoxide); all data shown were normalised to cells exposed only to carrier molecule.

| Structure (SMILES) | toxicity to colorectal cells in vitro (colorectal cells) | salicylate levels achievable in serum [1] [mM] | tumour growth (MAC13 tumour) | specific toxicity to colorectal cancer cells ([2]; MTT titration, 24 hours, SW480, HCT-116 versus MDA-231MB) | selectivity for SW480 compared with MDA-231-MB cells ([2]; cell viability assay, colon carcinoma versus breast cancer-derived cell line) | toxicity in comparison to aspirin (SW480 cell line; MTT assay, equivalent concentration of aspirin (FIG. 3, 48 hour incubation)) | specificity against the cell line derived from a colon cancer (SW480 cell line; SW480 versus MCF-7 and U373MG (FIG. 1), MTT) |
| --- | --- | --- | --- | --- | --- | --- | --- |
| CC(=O)Oc1ccccc1C(=O)O [Aspirin, acetylsalicylic acid] | exhibit toxicity | > 1 |  |  |  |  |  |
| O=C(CCC(=O)Oc1ccccc1C(=O)O)Oc1ccccc1C(=O)O [Compound 508, bis(2-carboxyphenyl) succinate] |  |  | decrease in tumour growth | specifically toxic to colorectal cancer cells | significantly more toxic to SW480 colorectal cancer cells than to MDA-231-MB cells | more toxic in comparison to aspirin | retains a degree of specificity |
| O=C(/C=C/C(=O)Oc1ccccc1C(=O)O)Oc1ccccc1C(=O)O [Compound 517, fumaroyldiaspirin] |  |  | decrease in tumour growth |  |  |  |  |
